In experiment [1] the target is Tyrosine-protein kinase ABL2 (Homo sapiens, UniProt P42684). Description: Selectivity interaction (Upstate Kinase Profiler service (Millipore)) EUB0000056c ABL2. Particulars: at 1 µM.
The target in experiment [2] is 5-hydroxytryptamine receptor 2B (Homo sapiens, UniProt P41595). Description: Selectivity interaction (GPCR panel (PDSP screen)) EUB0001079a HTR2B. As to conditions: at 10 µM.
In experiment [3] the target is T1, Serine/threonine-protein kinase TAO1 (Homo sapiens) (UniProt Q7L7X3).
T1 sequence (whole entry): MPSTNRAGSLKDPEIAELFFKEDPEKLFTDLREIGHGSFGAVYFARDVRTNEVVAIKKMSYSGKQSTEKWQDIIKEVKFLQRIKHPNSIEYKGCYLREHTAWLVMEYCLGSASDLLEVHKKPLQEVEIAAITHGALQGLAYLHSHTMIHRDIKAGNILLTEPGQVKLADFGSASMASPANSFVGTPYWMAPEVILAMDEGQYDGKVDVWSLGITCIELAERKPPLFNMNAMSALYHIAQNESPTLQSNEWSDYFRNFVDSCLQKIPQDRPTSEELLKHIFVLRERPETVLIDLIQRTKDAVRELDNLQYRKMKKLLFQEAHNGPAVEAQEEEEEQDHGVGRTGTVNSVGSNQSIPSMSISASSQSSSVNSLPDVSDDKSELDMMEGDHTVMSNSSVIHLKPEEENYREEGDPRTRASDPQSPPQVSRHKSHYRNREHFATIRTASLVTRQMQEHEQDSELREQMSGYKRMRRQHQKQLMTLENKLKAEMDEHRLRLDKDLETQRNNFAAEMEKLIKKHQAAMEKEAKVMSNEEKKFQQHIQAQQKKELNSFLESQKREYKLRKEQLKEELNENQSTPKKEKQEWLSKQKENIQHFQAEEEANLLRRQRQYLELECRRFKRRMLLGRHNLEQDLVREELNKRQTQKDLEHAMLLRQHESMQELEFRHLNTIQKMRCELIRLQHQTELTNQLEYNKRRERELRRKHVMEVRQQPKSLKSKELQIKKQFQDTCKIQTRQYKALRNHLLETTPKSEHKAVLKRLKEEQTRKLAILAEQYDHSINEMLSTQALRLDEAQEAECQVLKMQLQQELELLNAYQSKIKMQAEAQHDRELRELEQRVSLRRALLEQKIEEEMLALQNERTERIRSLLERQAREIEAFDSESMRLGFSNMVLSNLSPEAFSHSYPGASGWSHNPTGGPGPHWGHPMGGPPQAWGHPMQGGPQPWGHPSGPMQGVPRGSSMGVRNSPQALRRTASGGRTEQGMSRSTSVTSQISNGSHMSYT
As to the kind of experiment: Selectivity interaction (KinomeScan (DiscoverX)) EUB0000045b TAOK1.

The target of experiment [4] is T2, Mitogen-activated protein kinase kinase kinase 5 (Homo sapiens) (UniProt Q99683).
T2 sequence (whole entry): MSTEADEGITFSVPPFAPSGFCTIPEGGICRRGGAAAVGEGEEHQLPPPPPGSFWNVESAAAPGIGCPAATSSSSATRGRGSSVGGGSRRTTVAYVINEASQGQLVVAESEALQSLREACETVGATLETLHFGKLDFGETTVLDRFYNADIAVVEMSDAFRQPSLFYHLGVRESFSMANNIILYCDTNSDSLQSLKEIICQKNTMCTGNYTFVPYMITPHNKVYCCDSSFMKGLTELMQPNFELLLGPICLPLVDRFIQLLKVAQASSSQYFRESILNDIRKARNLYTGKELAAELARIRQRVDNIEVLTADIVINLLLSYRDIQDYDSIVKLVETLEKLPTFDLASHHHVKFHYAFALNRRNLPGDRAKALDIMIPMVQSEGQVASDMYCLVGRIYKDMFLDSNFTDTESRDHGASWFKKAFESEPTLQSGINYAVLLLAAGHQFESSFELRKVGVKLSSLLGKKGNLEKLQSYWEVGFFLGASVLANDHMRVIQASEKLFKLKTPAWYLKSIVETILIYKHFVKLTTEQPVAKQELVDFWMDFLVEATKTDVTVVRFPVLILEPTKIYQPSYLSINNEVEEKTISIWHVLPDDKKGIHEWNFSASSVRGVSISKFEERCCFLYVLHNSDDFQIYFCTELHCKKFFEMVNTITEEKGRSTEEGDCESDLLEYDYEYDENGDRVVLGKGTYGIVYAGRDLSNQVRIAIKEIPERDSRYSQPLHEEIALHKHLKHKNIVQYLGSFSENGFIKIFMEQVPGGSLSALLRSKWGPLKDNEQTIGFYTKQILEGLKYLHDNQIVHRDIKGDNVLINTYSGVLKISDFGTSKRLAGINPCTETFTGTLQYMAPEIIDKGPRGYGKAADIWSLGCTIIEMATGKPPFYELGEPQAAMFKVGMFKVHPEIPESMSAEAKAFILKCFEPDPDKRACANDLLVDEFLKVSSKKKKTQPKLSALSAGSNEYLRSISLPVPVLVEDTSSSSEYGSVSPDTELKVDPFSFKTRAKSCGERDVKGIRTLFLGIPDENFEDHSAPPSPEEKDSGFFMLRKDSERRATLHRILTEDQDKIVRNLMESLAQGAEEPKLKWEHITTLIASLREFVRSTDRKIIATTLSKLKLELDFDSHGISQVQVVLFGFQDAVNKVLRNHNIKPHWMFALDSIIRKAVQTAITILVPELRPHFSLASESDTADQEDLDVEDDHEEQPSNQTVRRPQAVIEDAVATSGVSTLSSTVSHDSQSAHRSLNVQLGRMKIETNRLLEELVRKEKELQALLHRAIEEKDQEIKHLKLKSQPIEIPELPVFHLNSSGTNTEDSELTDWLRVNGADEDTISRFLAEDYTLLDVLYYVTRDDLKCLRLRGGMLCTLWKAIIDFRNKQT
Description: Selectivity interaction (KinomeScan (DiscoverX)) EUB0000666a MAP3K5. Particulars: at 10 µM.

Experiment [5] concerns the target T3, Dual specificity mitogen-activated protein kinase kinase 6 (Homo sapiens) (UniProt P52564).
T3 sequence (whole entry): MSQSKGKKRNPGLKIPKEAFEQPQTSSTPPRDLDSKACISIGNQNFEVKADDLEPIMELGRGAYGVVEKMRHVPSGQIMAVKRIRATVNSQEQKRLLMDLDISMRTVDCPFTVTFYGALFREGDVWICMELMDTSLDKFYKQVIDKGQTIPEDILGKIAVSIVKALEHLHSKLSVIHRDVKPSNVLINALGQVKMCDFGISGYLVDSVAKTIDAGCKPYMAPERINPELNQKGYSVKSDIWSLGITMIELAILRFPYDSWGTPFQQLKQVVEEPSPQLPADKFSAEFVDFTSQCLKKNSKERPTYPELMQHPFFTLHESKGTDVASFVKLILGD
Description: Selectivity interaction (ActivX KiNativ screen (kinase selectivity in THP-1 cell lysates)) EUB0000639a MAP2K6. The class given is subcellular. As to conditions: lysate, at 5 µM.

The target in experiment [6] is Serine/threonine-protein kinase 32C (Homo sapiens) (UniProt Q86UX6). As to the kind of experiment: Selectivity interaction (KinomeScan (DiscoverX)) EUB0000618a STK32C. Particulars: at 10 µM.
Chain of Serine/threonine-protein kinase 32C (Homo sapiens) (Q86UX6 whole entry): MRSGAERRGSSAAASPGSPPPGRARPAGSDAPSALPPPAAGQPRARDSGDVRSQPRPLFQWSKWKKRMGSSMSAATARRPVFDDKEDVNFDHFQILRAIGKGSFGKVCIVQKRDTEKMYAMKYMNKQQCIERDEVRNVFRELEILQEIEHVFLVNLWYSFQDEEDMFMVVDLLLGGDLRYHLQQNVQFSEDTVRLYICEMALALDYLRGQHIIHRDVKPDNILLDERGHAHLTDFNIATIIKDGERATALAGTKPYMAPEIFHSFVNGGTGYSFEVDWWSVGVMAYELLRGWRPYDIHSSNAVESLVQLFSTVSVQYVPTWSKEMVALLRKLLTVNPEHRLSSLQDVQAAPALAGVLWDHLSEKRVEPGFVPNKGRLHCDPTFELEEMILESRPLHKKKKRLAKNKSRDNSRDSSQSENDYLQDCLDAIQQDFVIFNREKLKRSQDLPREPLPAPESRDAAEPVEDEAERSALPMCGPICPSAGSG

Chain of 5-hydroxytryptamine receptor 2B (P41595 whole entry): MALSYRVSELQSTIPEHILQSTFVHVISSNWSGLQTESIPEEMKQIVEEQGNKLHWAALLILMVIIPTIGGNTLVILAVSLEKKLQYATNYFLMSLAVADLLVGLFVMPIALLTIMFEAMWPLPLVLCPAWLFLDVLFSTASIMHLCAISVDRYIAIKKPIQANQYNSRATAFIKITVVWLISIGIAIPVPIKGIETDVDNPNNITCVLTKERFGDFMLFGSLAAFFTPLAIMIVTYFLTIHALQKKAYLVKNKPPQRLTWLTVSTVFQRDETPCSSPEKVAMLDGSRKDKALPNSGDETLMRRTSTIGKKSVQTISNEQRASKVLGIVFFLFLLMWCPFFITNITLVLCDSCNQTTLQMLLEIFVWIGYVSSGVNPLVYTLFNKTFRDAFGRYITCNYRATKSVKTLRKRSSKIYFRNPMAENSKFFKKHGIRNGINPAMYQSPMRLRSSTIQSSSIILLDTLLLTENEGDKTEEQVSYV
Chain of Tyrosine-protein kinase ABL2 (P42684 whole entry): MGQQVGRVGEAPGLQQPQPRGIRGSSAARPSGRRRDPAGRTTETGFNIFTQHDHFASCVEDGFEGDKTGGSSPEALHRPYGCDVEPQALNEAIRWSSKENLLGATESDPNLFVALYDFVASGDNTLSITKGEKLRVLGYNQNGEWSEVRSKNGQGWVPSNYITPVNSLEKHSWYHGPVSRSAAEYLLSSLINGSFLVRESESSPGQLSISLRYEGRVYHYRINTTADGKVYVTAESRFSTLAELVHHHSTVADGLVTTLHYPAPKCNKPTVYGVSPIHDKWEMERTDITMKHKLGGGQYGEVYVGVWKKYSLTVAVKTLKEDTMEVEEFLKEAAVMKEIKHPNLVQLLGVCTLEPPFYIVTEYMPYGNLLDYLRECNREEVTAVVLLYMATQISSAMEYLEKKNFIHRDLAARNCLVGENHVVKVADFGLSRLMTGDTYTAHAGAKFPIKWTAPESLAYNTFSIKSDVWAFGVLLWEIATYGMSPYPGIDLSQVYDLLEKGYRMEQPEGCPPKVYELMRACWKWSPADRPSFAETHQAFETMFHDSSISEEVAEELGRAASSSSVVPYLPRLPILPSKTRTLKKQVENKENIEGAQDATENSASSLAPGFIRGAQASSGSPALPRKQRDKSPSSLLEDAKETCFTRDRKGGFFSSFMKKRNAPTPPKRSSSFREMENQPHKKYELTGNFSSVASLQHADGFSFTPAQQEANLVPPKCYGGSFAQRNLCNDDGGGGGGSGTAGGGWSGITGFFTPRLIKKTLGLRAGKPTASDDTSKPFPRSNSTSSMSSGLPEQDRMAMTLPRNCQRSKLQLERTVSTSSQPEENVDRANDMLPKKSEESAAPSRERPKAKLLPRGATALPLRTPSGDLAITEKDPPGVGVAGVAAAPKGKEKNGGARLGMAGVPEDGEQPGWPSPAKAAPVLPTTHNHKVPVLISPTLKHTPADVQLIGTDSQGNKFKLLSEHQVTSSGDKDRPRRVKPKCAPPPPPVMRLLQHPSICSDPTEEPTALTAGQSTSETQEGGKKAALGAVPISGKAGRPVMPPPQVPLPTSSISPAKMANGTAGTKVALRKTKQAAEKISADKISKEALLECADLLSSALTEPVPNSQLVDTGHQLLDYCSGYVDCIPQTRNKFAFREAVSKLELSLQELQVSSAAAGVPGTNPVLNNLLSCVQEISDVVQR

Consider `Cc1ccc(-c2ccc3c(ccc4sc5c(c43)NC[C@@H](C)NC5=O)n2)cn1`, for which the % of inhibition in experiment [1] is 13%.
`Nc1cnc(N2CCc3cc(S(=O)(=O)Nc4c(F)cc(Cl)cc4F)cc(N4CCCC4=O)c32)nc1` [TP-020n] displayed a % of inhibition in experiment [2] of 12.9%.
For the molecule `C=CC(=O)Nc1cc(-n2c(=O)ccc3cnc4ccc(-c5ccc(NS(C)(=O)=O)cc5)cc4c32)ccc1C`, the results for the % of control in experiment [3] (at 1 µM) and in experiment [3] (at 10 µM) were 100% and 79%, respectively.
Molecule `O=C(NOC[C@H](O)CO)c1ccc(F)c(F)c1Nc1ccc(I)cc1F` gave a % of control in experiment [4] of 91%.
Consider `CC[C@@H]1[C@H](F)C(=O)N[C@@H]1COc1nccc2cc(C(N)=O)c(OC)cc12` [ZIMLOVISERTIB], for which the % of inhibition in experiment [5] was 55.8%.
Regarding `O[C@H]1CC[C@H](Nc2ncc3nc(Nc4c(F)cc(F)cc4F)n([C@H]4CCOC4)c3n2)CC1`, the % of control in experiment [6] stood at 100%.

The record behind these values is ChEMBL document CHEMBL5465560, “Selectivity Literature for EUbOPEN Chemogenomic Library” (2024).
